This assay concerns the target SARS-CoV-2 3CLpro (Severe acute respiratory syndrome coronavirus 2, UniProt P0DTD1). Put plainly: biochemical. It counts as biochemical.
Setting [1] is: with 0.01% Triton X-100; mean ± SD of triplicate; 4 h, 30 °C; read-out: A) EC50 with Triton X-100.
Setting [2] is: without Triton X-100; mean ± SD of triplicate; 4 h, 30 °C; read-out: B) EC50 without Triton X-100.
The mark [3] stands for this setting: EC50 with Triton X-100 / EC50 without Triton X-100, ratio greater than 2 suggests aggregation-based inhibitor.

Read-outs that look alike come from different tables or passages of the source.

Regarding `Oc1cc2c(c(Cl)c1O)CCNCC2c1ccccc1` (racemic) [(±)-6-Chloro-PB], the “Ratio (A/B)” value was found to be 1.4. The EC50 under setting [1] worked out at 1440 ± 353 nM. Also, the EC50 under setting [2] stood at 1020 ± 289 nM.

As to `Oc1cc2c(cc1O)[C@H]1c3ccccc3CN[C@@H]1CC2` (racemic) [Dihydrexidine], the “Ratio (A/B)” value is recorded as 1.1. In addition, the EC50 under setting [1] was found to be 705 ± 153 nM. Under setting [2], the EC50 was found to be 622 ± 72 nM.

For `C=CCN1CCc2cc(O)c(O)cc2C(c2ccccc2)C1` (racemic) [N-allyl-(±)-SKF 38393], the EC50 runs as follows: under setting [1], 3340 ± 805 nM; under setting [2], 1650 ± 462 nM.

`Oc1ccc(Cn2cc[nH]c2=S)cc1` [1-Hbit]: the EC50 under setting [1] amounted to 7080 ± 5150 nM and the EC50 under setting [2] is above 20000 nM.

Consider `N=c1c[n+](N2CCOCC2)[n-]o1` [3-Morpholinosydnonimine], for which the “Ratio (A/B)” value is recorded as 1.1. The concentration giving a half-maximal response (EC50) under setting [1] came out at 5660 ± 445 nM. The half-maximal effective concentration (EC50) under setting [2] turned out to be 4970 ± 2380 nM.

On to `NC1CCc2cc(O)c(O)cc2C1` (centres unmarked) [6,7-ADTN], for which the “Ratio (A/B)” value was found to be 1.1. Further, the EC50 under setting [1] stood at 2380 ± 257 nM. Further, under setting [2], the EC50 amounted to 2120 ± 727 nM.

`Oc1cc(O)c2c(c1)O[C@H](c1ccc(O)c(O)c1)[C@@H](O)C2` [(+)-Catechin]: the EC50 runs as follows: under setting [1], above 20000 nM; under setting [2], 11300 ± 6550 nM.

For `CN1CC[C@@]2(C)c3cc(O)ccc3N(C)[C@@H]12` [(−)-Eseroline], the “Ratio (A/B)” value is 1.3. Further, the EC50 under setting [1] was 994 ± 197 nM. The concentration for a half-maximal effect (EC50) under setting [2] worked out at 738 ± 201 nM.

Consider `NC[C@@H]1O[C@H](C23CC4CC(CC(C4)C2)C3)Cc2c1ccc(O)c2O` [A-77636], for which the “Ratio (A/B)” value was determined as 1.6. Also, the EC50 (read-out: A) EC50 with Triton X-100) was determined as 3790 ± 630 nM. Also, for the setting “read-out: B) EC50 without Triton X-100”, the 50% effective concentration (EC50) is 2340 ± 783 nM.

For the molecule `N.S=C(S)N1CCCC1` [APDC], the “Ratio (A/B)” value is 0.8. Under setting [1], the EC50 was determined as 1230 ± 64 nM. Further, the EC50 under setting [2] turned out to be 1520 ± 697 nM.

As to `O=C(O)/C=C/c1ccc(O)c(O)c1` [Caffeic Acid], the EC50 is above 20000 nM (A) EC50 with Triton X-100) and 5390 ± 1230 nM (B) EC50 without Triton X-100).

In the case of `O=C(O)Cc1ccc(O)c(O)c1` [DOPAC], the “Ratio (A/B)” value is listed as 1.3. The EC50 under setting [1] was determined as 3090 ± 226 nM. Also, the EC50 under setting [2] was 2460 ± 117 nM.

For `CN(C)C(=O)/N=N/C(=O)N(C)C` [Diamide], the concentration giving a half-maximal response (EC50) is, setting by setting: under setting [1], 17100 ± 20800 nM; under setting [2], above 20000 nM.

As for `CCN(CC)C(=S)SSC(=S)N(CC)CC` [Disulfiram], the “reduction in levels of inhibition upon addition of 0.01% Triton X-100” value (with vs without 0.01% Triton X-100) is above 2 fold.

Turning to `Oc1ccc(C2CNCCc3c2cc(O)c(O)c3Cl)cc1` (centres unmarked) [Fenoldopam], the EC50 by setting is: under setting [1], above 20000 nM; under setting [2], 7190 ± 6080 nM.

In the case of `N=C(N)NCCSSCCNC(=N)N` [GED], the “Ratio (A/B)” value under setting [3] stood at 1.6. Besides, the EC50 by setting is: under setting [1], 5830 ± 664 nM; under setting [2], 3640 ± 2430 nM.

On to `CC(=O)[C@]1(O)Cc2c(O)c3c(c(O)c2[C@@H](O[C@H]2C[C@H](N)[C@H](O)[C@H](C)O2)C1)C(=O)c1ccccc1C3=O` [Idarubicin], for which the EC50 reads like this: under setting [1], above 20000 nM; under setting [2], above 20000 nM.

In the case of `CC(=O)NCCc1ccc(O)c(O)c1` [N-Acetyldopamine], the “Ratio (A/B)” value is recorded as 1.8. The EC50 under setting [1] is 2650 ± 550 nM. The EC50 under setting [2] is 1450 ± 222 nM.

On to `CC(Cc1ccc(O)c(O)c1)C(C)Cc1ccc(O)c(O)c1` (centres unmarked) [Nordihydroguaiaretic acid], for which the “Ratio (A/B)” value was determined as 1.3. Further, the EC50 under setting [1] turned out to be 270 ± 58 nM. In addition, under setting [2], the EC50 was 214 ± 65 nM.

Consider `C=CCN1CCc2c(cc(O)c(O)c2Br)C(c2ccccc2)C1` (stereo not drawn) [R(+)-6-Bromo-APB], for which the EC50 is, setting by setting: under setting [1], above 20000 nM; under setting [2], above 20000 nM.

Consider `CN1CCc2cc(O)cc3c2[C@H]1Cc1ccc(O)c(O)c1-3` [R(−)-2-Hydroxyapomorphine], for which, under setting [3], the “Ratio (A/B)” value stood at 1.1. Also, the EC50 under setting [1] is 450 ± 78 nM and the EC50 under setting [2] was determined as 420 ± 101 nM.

With `Br.CCCN1CCc2cc(O)cc3c2[C@H]1Cc1ccc(O)c(O)c1-3` [R(−)-2-OH-NPA, R(−)-2,10,11-Trihydroxy-N-propylnoraporphine], under setting [3], the “Ratio (A/B)” value was 1.0. Also, the EC50 reads like this: under setting [1], 746 ± 91 nM; under setting [2], 715 ± 133 nM.
